For test [1], the system named is 1-LN cells. Nature of the test: In vitro Matrigel invasion assay (modified Boyden chamber). The format is cell-based, human. The note with it: cells incubated with Pg (Pg 2ε) plus inhibitor, in words. As to the method:
In Vitro Invasion Assay—The invasive activity in vitro was assessed by determining the ability of 1-LN cells to invade Matrigel® [47]. Polycarbonate filters (8-μm pore size; Becton Dickinson, Franklin Lakes, N.J.) were coated with Matrigel (12 μg/filter) and placed in a modified Boyden chamber. Cells (1×10^5) were added to the upper chamber in serum-free RPMI 1640 medium, or medium containing purified Pg 2 glycoforms in the absence and presence of anti-DPP IV, anti-u-PA or anti-MMP-9 IgGs, and incubated for 48 h in a humidified atmosphere. Following incubation, non-invading cells were removed from the upper chamber with a cotton swab, and filters were excised and stained with Cyto-Quik™ (Fisher Scientific, Fair Lawn, N.J.). Cells on the lower surface of the filter were enumerated using an ocular micrometer and counting a minimum of five high-powered fields. Each experiment was performed twice with triplicate samples.
Effect of Pg on 1-LN Cellular Invasion—Pg enhances the ability of prostate cancer PC-3 and DU-145 cell lines to penetrate the synthetic basement membrane Matrigel® [54]. To determine whether Pg regulates invasion via secretion of MMP-9, 1-LN cells were incubated with different inhibiting antibodies in the presence of purified Pg 2 glycoforms.

Test [2] relates to 1-LN cells. Briefly: MMP-9 activity in serum-free culture medium of 1-LN cells (quantitative gelatin zymography). The format is cell-based, human. As to the method:
Gelatin Zymography—Protein samples were electrophoresed on gelatin-containing 0.75 mm thick 10% polyacrylamide gels in the presence of SDS under nonreducing conditions. After completion of the electrophoretic run, the gels were incubated with two changes of 2.5% Triton X-100 for 1 h, followed by incubation for 18 h at 37° C. in 0.1 M glycine-NaOH, pH 8.3, containing 1 mM CaCl2, and […], before staining with Coomassie Brilliant Blue R-250 to visualize the lysis bands.
MMP-9 Activity in Solution—MMP-9 activity was measured in tissue culture supernatants by quantitative zymography using as a standard MMP-9 purified by affinity chromatography on gelatin-Sepharose from 1-LN cell conditioned medium (10 liters). Conditioned medium (50 μl), from 1-LN cell monolayers in 48 well culture plates (1.7×10^6 cells/well) incubated with Pg 2 glycoforms and/or inhibitors of Pg binding or activation, were electrophoresed on gelatin-containing gels and the degree of lysis was quantified using a Gelman ACD-15 Automatic Computing Densitometer (Gelman Instrument Company, Ann Arbor, Mich.). Values were determined by integrating the density of the selected bands and expressed in units×mm^2. Each gel was scanned three times and the average value of the integrated density of the bands was used to determine levels of MMP-9 from calibration curves constructed with purified active MMP-9 electrophoresed under the same conditions. The statistical analysis of the data was performed on an IBM 433 DX/S computer using the program SYSTAT® for Windows 95. The statistical significance of differences between means was evaluated by Student's t-test. MMP-9 was positively identified in conditioned medium by electrophoretic separation in 10% SDS-polyacrylamide gels (SDS-PAGE), electroblot of the electrophoresed proteins to nitrocellulose membranes and reaction with an anti-MMP-9 mAb (1 μg/ml) followed by reaction with a secondary alkaline phosphatase conjugated anti-mouse IgG. Detection was performed by reaction with the alkaline phosphatase substrate 5-bromo-4-chloro-3-indolyl phosphate in the presence of nitroblue tetrazolium (1 mM each) in 10 mM Tris-HCl, pH 8.5.
Effect of Pg on the Expression of MMP-9 by 1-LN Cells—Cells were seeded into 48-well culture plates and grown in RPMI 1640 containing 10% fetal bovine serum. Confluent monolayers were then incubated for 24 h with quiescent culture medium containing RPMI 1640 and 0.5% fetal bovine serum. Each individual Pg 2 glycoform (0.1 μM) was added in triplicate to cell monolayers in 300 μl of serum-free RPMI 1640 and incubated for 24 h at 37° C. Culture medium was collected to measure secretion of MMP-9 as described under Experimental Procedures. Prior to analyses of the MMP-9 secreted into the medium by 1-LN cells in the presence of individual Pg 2 glycoforms, we purified MMP-9 from conditioned medium (5 liters) by the technique of Masure et al.. […] A similar analysis of the Mr˜95,000 protein yielded the sequence APRQRQ, corresponding to the amino-terminal sequence of proMMP-9. […] We then proceeded to analyze the MMP-9 secreted into the medium by 1-LN cells incubated with each individual Pg 2 glycoform in serum-free culture medium, using the purified MMP-9 as a standard for quantification by gelatin zymography. These analyses (FIG. 7A) show a major band of active protein with a Mr˜85,000. […] Samples of these conditioned media were also subjected to SDS-PAGE under reducing conditions, electroblotted to nitrocellulose membranes and then reacted with an anti-MMP-9 mAb (FIG. 7B). […] A 4-fold decrease in the production of MMP-9 by cells co-incubated with anti-DPP IV mAb 236.3 and Pg 2ε (p<0.001) (Table II) is clearly observed in the conditioned medium (Lane 6 on FIGS. 8A and 8B, respectively).

For test [3], the system named is 1-LN human prostate tumor cells. Briefly: Binding of 125I-labeled Pg 2 glycoforms to 1-LN cells. To be noted: 125I-labeled glycoform 0.1 μM, increasing concentrations of inhibitor. As to the method: Ligand Binding Analysis—Cells were grown in tissue culture plates until the monolayers were confluent. Prior to use in binding assays, the cells were washed in HBSS. All binding assays were performed at 4° C. in RPMI 1640 containing 2% bovine serum ablumin (BSA). Increasing concentrations of ^125I-labeled Pg 2 glycoforms were incubated with cells for 60 min in 48-well or 96-well culture plates, respectively. Free ligand was separated from bound by aspirating the incubation mixture by and washing the cell monolayers rapidly three times with RPMI 1640 containing 2% BSA. The cells were then lyzed with 0.1 M NaOH, and bound radioactivity was determined in a Pharmacia LKB Biotechnology 1272-gamma counter. Molecules of ligand bound were calculated after substraction of non-specific binding measured in the presence of nonlabeled 100 μM Pg 2. Estimates for dissociation constant (Kd) values and maximal binding of Pg 2 glycoforms (Bmax) were determined by fitting data directly to the Langmuir isotherm using the statistical program SYStat® for Windows.
Binding of Single Pg 2 Glycoforms to 1-LN Human Prostate Tumor Cells—Binding of ^125I-labeled single Pg 2 glycoforms to 1-LN cells was determined as described under Experimental Procedures. Native Pg 2 has six glycoforms which differ in their sialic acid content.
In order to assess the binding mechanism of the individual Pg 2 glycoforms to 1-LN cells, we studied their activation by cells incubated with each glycoform in the presence of 6-aminohexanoic acid (6-AHA) and L-lactose. The antifibrinolytic amino acid 6-AHA prevents interaction of Pg L-lysine binding sites with several cell membrane-associated components. L-lactose is a sugar which intereferes with binding of Neu 5-AC (α2-3) or (α2-6) residues to sialic acid binding proteins and inhibits binding of Native Pg 2 to DPP IV on the surface of rheumatoid synovial fibroblasts.

As to angiostatin, in test [1], the “Effect on Pg-induced Matrigel invasion by 1-LN cells” value is listed as “total inhibition”.

Consider `NCCCCCC(=O)O` [Glycoform 6-AHA, 6-aminohexanoic acid, reference compound], for which the “Active MMP-9” value in test [2] (SFM + additive alone, no Pg 2 glycoform, 24 h) came out at 0.61 ± 0.14 ng/mL. Further, the “Changes in the production of MMP-9” value in test [2] (co-incubated with 6-AHA (100 mM) and individual Pg 2 glycoforms, versus controls) is reported as “did not show any major changes”. Also, the “Inhibition of binding of single Pg 2 glycoforms to 1-LN cells” value in test [3] was “inhibited the binding of Pg 2α and Pg 2β”.

On to “FN peptide L1768 TSRPA: polypeptide comprising the fibronectin (FN) primary sequence L1768 TSRPA that mediates FN binding to CD26/DPP IV (FPAPDG; UniProt P02751 1768-1773, looked up, fragment)”, for which, in test [1], the “Effect on Pg-induced Matrigel invasion by 1-LN cells” value is “inhibited Pg-induced Matrigel invasion by 1-LN cells in a dose-dependent manner”.

The values are drawn from US20030138429A1, “Compositions and methods for inhibiting metastasis” (priority 2001, published 2003).
